How the values were obtained:
ubiquitin isopeptidases [1] = experiment: Ubiquitin isopeptidase activity, Ub-PEST substrate, lysates of treated RKO and HCT 116 cells; format: cell-based, human; conditions: cells treated 6, 20 or 60 μM, 12 h
Summary of the method: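 RKO and HCT 116 cells (6×10^5) were treated with 0–60 μM compound for 12 h at 37 °C, then lysed in HEPES/EDTA/CHAPS/5 mM ATP, pH 7.5. Lysates at 0.3 mg/mL protein were incubated with 50 μg/mL Ub-PEST for 45 min at 25 °C. Released 8.5 kDa ubiquitin was quantified by anti-ubiquitin western blot densitometry relative to vehicle (100%).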

ubiquitin isopeptidases [2] = experiment: Ubiquitin isopeptidase activity, z-LRGG-AMC substrate, lysates of treated RKO and HCT 116 cells; format: cell-based, human; conditions: cells treated 6, 20 or 60 μM, 12 h
Summary of the method: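 RKO and HCT 116 cells were treated 12 h at 37° C with 6, 20 or 60 μM compound. Lysates at 0.5 mg/mL were pre-incubated with 30 μM MG115 (30 min, 4° C) to block proteasome, then given z-LRGG-AMC for 3 h at 37° C. Cleaved AMC was read fluorometrically.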

[3] = tested on: polyubiquitin conjugates in RKO-E6 cells; experiment: Accumulation of polyubiquitin in RKO-E6 cells (immunoblot); format: cell-based, human; conditions: EC80 or 60 μM, 6-24 h
Summary of the method: (§1)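 RKO-E6 cells exposed at 37° C for 6, 12 or 24 h to compound concentrations giving 80% cell death at 48 h; for p53, RKO and RKO-E6 cells treated 6 h. Lysates (12.5 μg protein) immunoblotted for ubiquitin or p53 with ECL detection; p53 quantified by densitometry as RKO-E6/RKO ratio.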

p53 = p53 accumulation, ratio RKO-E6 cells/RKO cells (immunoblot, densitometry); format: cell-based, human; conditions: 6 h; etoposide 50 μM, MG115, NSC-302979, DBA 20 μM, others 60 μM
Summary of the method: as §1

RKO-E6 cells [4] = tested on: RKO-E6 cells
Procedure: (§2) Cell viability was measured with MTT reagent as described in materials and methods.
(§3) Cell viability was detected by the MTT assay. Briefly, 1×10^5 cells were incubated per well of a sterile, 96-well assay plate with 0-60 μM of test compounds for 48 hours. MTT reagent was added to each well, final concentration of 0.5 mg/mL, and incubated for an additional 3 hours. The media was aspirated and remaining MTT reagent from each well and added 100 μL of HCl:isopropanol (1:24). The absorbance of each sample was measured at 405 nm.

RKO cells = experiment: MTT cell viability assay, RKO cells; conditions: for cell death in RKO compared with RKO-E6 cells: 48 h, MTT, isogenic pair
Procedure: as §2, §3

RKO-E6 cells [5] = experiment: MTT cell viability assay, RKO-E6 cells; conditions: cell viability assay at 48 h, RKO-E6 cells
Procedure: as §2, §3

HCT 116 +/+ cells = experiment: MTT cell viability assay, HCT 116 p53 +/+ cells; conditions: 48 h, MTT; for cell death in HCT 116 +/+ compared with HCT 116 −/− cells: isogenic pair

Row | SMILES | inhibition of isopeptidase cleavage of Ub-PEST (ubiquitin isopeptidases [1]) | inhibition of z-LRGG-AMC hydrolysis by ubiquitin isopeptidases (ubiquitin isopeptidases [2]) | cellular accumulation of polyubiquitin conjugates [3] | ratio of p53 protein [RKO-E6 cells/RKO cells] (p53) | EC50 (RKO-E6 cells [4]) [µM] | cell death in RKO compared with RKO-E6 cells (RKO cells) | EC80, concentration that gave 80% cell death (RKO-E6 cells [5]) [µM] | cell death in HCT 116 +/+ compared with HCT 116 −/− cells (HCT 116 +/+ cells) | EC50 (HCT 116 +/+ cells; read-out: Cytotoxic Potency (EC50) HCT +/+) [µM] | EC50 (RKO cells; read-out: EC50 in RKO cell lines, prostaglandins for comparison, comparison values in the text) [µM]
1 | C=C1C(=O)C2=CC1CCC(=O)C1(C)CCC(OC(C)=O)C(C)(C)C1CC2O (stereo not drawn) [NSC-302979, shikoccin] | inhibited isopeptidase activity in a concentration dependent manner | inhibited ubiquitin isopeptidase activity | protein species with polyubiquitin conjugation accumulated in cells | approached unity | 1.4 ± 0.1 | caused cell death with equal potency and efficacy | 3.5 | caused cell death with equal potency | 2.7 ± 0.2 | –
2 | CCCCC[C@H](O)C/C=C1/C(=O)C=C[C@@H]1C/C=C\CCCC(=O)O [Δ12-PGJ2, Δ12-prostaglandin J2] | inhibited isopeptidase activity in a concentration dependent manner | inhibited ubiquitin isopeptidase activity | protein species with polyubiquitin conjugation accumulated in cells | approached unity | 9.2 ± 1 | caused cell death with equal potency and efficacy | 13.2 | caused cell death with equal potency | – | 9

— patent publication US20060106099A1, “Novel inhibitors of ubiquitin isopeptidases” (priority 2002, published 2006)
